These are literature values, as cited in patent publication US20220118118A1, “BENZAZEPIN-L,7-DIOL-DERIVED RADIOLABELED LIGANDS WITH HIGH IN VIVO NMDA SPECIFICITY” (ETH ZURICH, priority 2018, published 2022).

Each structure is given as a SMILES string.

For this data set the following is noted: Garrigou-Cadenne et al. 1995.

Take `OC(CN1CCC(Cc2ccc(F)cc2)CC1)c1ccc(Cl)cc1` (stereo not shown) [eliprodil]: the brain/plasma ratio result is “about 20”.
